IC50 data for 23 molecules are collected here from patent US11154563B2, “Immunoproteasome inhibitors” (Principia Biopharma Inc., priority 2017, dated 2021).

Bounds are passed on as bounds.

The target of assay [1] is immunoproteasome LMP7/B5i subunit (Homo sapiens, UniProt P20618+P28062). Put plainly: Caliper-based proteasome enzymatic activity assay, LMP7. It is filed as biochemical. The note with it: human recombinant immunoproteasome 0.3 nM, FAM-peptide substrate 1 μM, 3 h at rt. The method, then:
(§1) A Caliper-based proteasome assay (Caliper Life Sciences, Hopkinton, Mass.) was used to measure inhibition of the immunoproteasome LMP7/B5i subunit, the immunoproteasome LPM2/β1i subunit, and the constitutive proteasome β5c unit for a compound of Formula (I). For LMP7 and β5c, serial dilutions of test compounds were incubated with either human recombinant immunoprotcasome or constitutive proteasome (0.3 nM enzyme) and a carboxyfluorescein (FAM)-labeled peptide substrate FAM-TYETFKSIMKKSPF-NH2 (1 μM) at it for 3 h. The reaction was then terminated with a buffer containing the known proteasome inhibitor carfilzomib at a concentration of 5 uM. For LMP2, serial dilutions of test compounds were incubated with human recombinant immunoproteasome proteasome (0.3 nM enzyme) and a carboxyfluorescein (FAM)-labeled peptide substrate FAM-[…]-NH2 (1 μM) at rt for 2 h. The reaction was then terminated with a buffer containing the known proteasome inhibitor ixazomib at a concentration of 6.7 uM. The reaction buffer was 20 mM Hepes pH 7.4, 0.01% bovine serum albumin, 0.015% SDS, 0.5 mM EDTA, 1%0/DMSO. The peptide cleavage reaction product was quantified on a Caliper LabChip 3000. Percent inhibition was calculated for each compound dilution and the concentration that produced 50% inhibition was calculated. This value is presented as the IC50.

In assay [2] the target is constitutive proteasome β5c unit (Homo sapiens, UniProt P20618+P28074). As to the kind of experiment: Caliper-based proteasome enzymatic activity assay, β5c. The format is biochemical. The note with it: human recombinant constitutive proteasome 0.3 nM, FAM-peptide substrate 1 μM, 3 h at rt; read-out: β5c subunit IC50. The procedure:
as §1

Take `CC(C)(C=C(C#N)C(=O)N1CCCCC[C@H]1COC(=O)N[C@@H](Cc1coc2ccccc12)B(O)O)N1CCOCC1` [Example 64, ((R)-2-(benzofuran-3-yl)-1-(((((S)-1-(2-cyano-4-methyl-4-morpholinopent-2-enoyl)azepan-2-yl)methoxy)carbonyl)amino)ethyl)boronic acid]: the IC50 was found to be 3.3 nM in assay [1] and 645 nM in assay [2].

Consider `CC(C)(C=C(C#N)C(=O)N1CCOC[C@@H]1COC(=O)N[C@@H](Cc1coc2ccccc12)B(O)O)N1CCC(F)(F)C1` [Example 65, ((R)-2-(benzofuran-3-yl)-1-(((((R)-4-(2-cyano-4-(3,3-difluoropyrrolidin-1-yl)-4-methylpent-2-enoyl)morpholin-3-yl)methoxy)carbonyl)amino)ethyl)boronic acid], for which the 50% inhibitory concentration (IC50) is 2.3 nM in assay [1] and 60 nM in assay [2].

Take `CC(C)(C=C(C#N)C(=O)N1CCCC[C@@H]1COC(=O)N[C@@H](Cc1coc2ccccc12)B(O)O)N1CCC(F)(F)CC1` [Example 66, ((R)-2-(benzofuran-3-yl)-1-(((((R)-1-(2-cyano-4-(4,4-difluoropiperidin-1-yl)-4-methylpent-2-enoyl)piperidin-2-yl)methoxy)carbonyl)amino)ethyl)boronic acid]: the IC50 is 2.1 nM in assay [1] and 217 nM in assay [2].

In the case of `CC(C)(C=C(C#N)C(=O)N1CCCCC[C@H]1COC(=O)N[C@@H](Cc1coc2ccccc12)B(O)O)N1CCC(F)(F)C1` [Example 68, ((R)-2-(benzofuran-3-yl)-1-(((((S)-1-(2-cyano-4-(3,3-difluoropyrrolidin-1-yl)-4-methylpent-2-enoyl)azepan-2-yl)methoxy)carbonyl)amino)ethyl)boronic acid], the values for the half-inhibitory concentration (IC50) in assay [1] and in assay [2] were 2.5 nM and 447 nM, respectively.

For `CC(C)(C)C=C(C#N)C(=O)N1CCOC[C@@H]1COC(=O)N[C@@H](Cc1ccccc1)B(O)O` [Example 69, ((R)-1-(((((R)-4-(2-cyano-4,4-dimethylpent-2-enoyl)morpholin-3-yl)methoxy)carbonyl)amino)-2-phenylethyl)boronic acid], the IC50 in assay [1] is 3.2 nM; in assay [2], 670 nM.

`COc1ccc(C[C@H](NC(=O)OC[C@H]2CCCCN2C(=O)C(C#N)=CC(C)(C)C)B(O)O)cc1` [Example 70, ((R)-1-(((((R)-1-(2-cyano-4,4-dimethylpent-2-enoyl)piperidin-2-yl)methoxy)carbonyl)amino)-2-(4-methoxyphenyl)ethyl)boronic acid]: the half-inhibitory concentration (IC50) in assay [1] is 6.5 nM; in assay [2], 1840 nM.

As for `CC(C)(C=C(C#N)C(=O)N1CCC[C@]1(C)COC(=O)N[C@@H](Cc1coc2ccccc12)B(O)O)N1CCOCC1` [Example 71, ((R)-2-(benzofuran-3-1)-1-(((((R)-1-(2-cyano-4-methyl-4-morpholinopent-2-enoyl)-2-methylpyrrolidin-2-yl)methoxy)carbonyl)amino)ethyl)boronic acid], the IC50 in assay [1] was determined as 4.5 nM; in assay [2], 1660 nM.

Turning to `CC(C)(C=C(C#N)C(=O)N1CCCCC[C@@H]1COC(=O)N[C@@H](Cc1coc2ccccc12)B(O)O)N1CCC(F)(F)C1` [Example 72, ((R)-2-(benzofuran-3-yl)-1-(((((R)-1-(2-cyano-4-(3,3-difluoropyrrolidin-1-yl)-4-methylpent-2-enoyl)azepan-2-yl)methoxy)carbonyl)amino)ethyl)boronic acid], the 50% inhibitory concentration (IC50) in assay [1] amounted to 2.5 nM; in assay [2], 225 nM.

`Cc1ccc(C[C@H](NC(=O)OC[C@H]2COCCN2C(=O)C(C#N)=CC(C)(C)C)B(O)O)cc1` [Example 73, ((R)-1-(((((R)-4-(2-cyano-4,4-dimethylpent-2-enoyl)morpholin-3-yl)methoxy)carbonyl)amino)-2-(p-tolyl)ethyl)boronic acid]: the IC50 in assay [1] stood at 2.7 nM; in assay [2] it was 288 nM.

On to `Cc1ccc(C[C@H](NC(=O)OC[C@H]2[C@H]3C[C@H]3CN2C(=O)C(C#N)=CC(C)(C)N2CCOCC2)B(O)O)cc1` [Example 75], for which the IC50 is 1.1 nM in assay [1] and 1020 nM in assay [2].

For `Cc1ccc(C[C@H](NC(=O)OC[C@H]2[C@H]3C[C@H]3CN2C(=O)C(C#N)=CC(C)(C)C)B(O)O)cc1` [Example 76], the IC50 stood at 1.2 nM in assay [1] and 677 nM in assay [2].

On to `COc1cccc(C[C@H](NC(=O)OC[C@H]2CCCCN2C(=O)C(C#N)=CC(C)(C)C)B(O)O)c1` [Example 77, ((R)-1-(((((R)-1-(2-cyano-4,4-dimethylpent-2-enoyl)piperidin-2-yl)methoxy)carbonyl)amino)-2-(3-methoxyphenyl)ethyl)boronic acid], for which the IC50 in assay [1] was 13 nM; in assay [2] it was above 5000 nM.

Regarding `COc1ccc(C[C@H](NC(=O)OC[C@H]2CCCCN2C(=O)C(C#N)=CC(C)(C)N2CCC(F)(F)C2)B(O)O)cc1` [Example 78, ((R)-1-(((((R)-1-(2-cyano-4-(3,3-difluoropyrrolidin-1-yl)-4-methylpent-2-enoyl)piperidin-2-yl)methoxy)carbonyl)amino)-2-(4-methoxyphenyl)ethyl)boronic acid], the IC50 in assay [1] amounted to 4.8 nM; in assay [2], 1270 nM.

Consider `CC(C)(C=C(C#N)C(=O)N1CCCC[C@@H]1COC(=O)N[C@@H](Cc1ccc(Cl)cc1)B(O)O)N1CCC(F)(F)C1` [Example 79, ((R)-2-(4-chlorophenyl)-1-(((((R)-1-(2-cyano-4-(3,3-difluoropyrrolidin-1-yl)-4-methylpent-2-enoyl)piperidin-2-yl)methoxy)carbonyl)amino)ethyl)boronic acid], for which the IC50 amounted to 2 nM in assay [1] and 578 nM in assay [2].

For the molecule `CN(CC(F)F)C(C)(C)C=C(C#N)C(=O)N1CCCC[C@@H]1COC(=O)N[C@@H](Cc1ccccc1)B(O)O` [Example 80, ((R)-1-(((((R)-1-(2-cyano-4-((2,2-difluoroethyl)(methyl)amino)-4-methylpent-2-enoyl)piperidin-2-yl)methoxy)carbonyl)amino)-2-phenylethyl)boronic acid], the IC50 in assay [1] is 2 nM; in assay [2] it was 1510 nM.

Turning to `Cc1ccc(C[C@H](NC(=O)OC[C@@H]2CCCCCN2C(=O)C(C#N)=CC(C)(C)N2CCC(F)(F)C2)B(O)O)cc1` [Example 81, ((R)-1-(((((S)-1-(2-cyano-4-(3,3-difluoropyrrolidin-1-yl)-4-methylpent-2-enoyl)azepan-2-yl)methoxy)carbonyl)amino)-2-(p-tolyl)ethyl)boronic acid], the half-maximal inhibitory concentration (IC50) in assay [1] was 4.4 nM; in assay [2] it was 3840 nM.

For `Cc1ccc(C[C@H](NC(=O)OC[C@H]2CCCCCN2C(=O)C(C#N)=CC(C)(C)N2CCC(F)(F)C2)B(O)O)cc1` [Example 84, ((R)-1-(((((R)-1-(2-cyano-4-(3,3-difluoropyrrolidin-1-yl)-4-methylpent-2-enoyl)azepan-2-yl)methoxy)carbonyl)amino)-2-(p-tolyl)ethyl)boronic acid], the IC50 in assay [1] came out at 2.9 nM; in assay [2], 445 nM.

Regarding `CN(C)C/C=C/C(=O)N1C[C@@H]2C[C@@H]2[C@@H]1COC(=O)N[C@@H](Cc1coc2ccccc12)B(O)O` [Example 87, ((R)-2-(benzofuran-3-yl)-1-(((((1S,2R,5R)-3-((E)-4-(dimethylamino)but-2-enoyl)-3-azabicyclo[3.1.0]hexan-2-yl)methoxy)carbonyl)amino)ethyl)boronic acid], the half-inhibitory concentration (IC50) stood at 13 nM in assay [1] and 1010 nM in assay [2].

Consider `CC#CC(=O)N1C[C@@H]2C[C@@H]2[C@@H]1COC(=O)N[C@@H](Cc1coc2ccccc12)B(O)O` [Example 88, ((R)-2-(benzofuran-3-yl)-1-(((((1S,2R,5R)-3-(but-2-ynoyl)-3-azabicyclo[3.1.0]hexan-2-yl)methoxy)carbonyl)amino)ethyl)boronic acid], for which the 50% inhibitory concentration (IC50) in assay [1] amounted to 7.1 nM; in assay [2] it was 263 nM.

On to `C=CC(=O)N1C[C@H](F)C[C@@H]1COC(=O)N[C@@H](Cc1ccccc1)B(O)O` [Example 89, ((R)-1-(((((2R,4R)-1-acryloyl-4-fluoropyrrolidin-2-yl)methoxy)carbonyl)amino)-2-phenylethyl)boronic acid], for which the figures for the half-maximal inhibitory concentration (IC50) in assay [1] and in assay [2] were 73 nM and 1850 nM, respectively.

Turning to `C=CC(=O)N1CC(F)(F)C[C@@H]1COC(=O)N[C@@H](Cc1coc2ccccc12)B(O)O` [Example 91, ((R)-1-(((((R)-1-acryloyl-4,4-difluoropyrrolidin-2-yl)methoxy)carbonyl)amino)-2-(benzofuran-3-yl)ethyl)boronic acid], the IC50 in assay [1] amounted to 2.5 nM; in assay [2] it was 320 nM.

With `Cc1ccc(C[C@H](NC(=O)OC[C@H]2[C@H]3C[C@H]3CN2C(=O)C(C#N)=CC2(C)CCOCC2)B(O)O)cc1` [Example 92, ((R)-1-(((((1S,2R,5R)-3-(2-cyano-3-(4-methyltetrahydro-2H-pyran-4-yl)acryloyl)-3-azabicyclo[3.1.]hexan-2-yl)methoxy)carbonyl)amino)-2-(p-tolyl)ethyl)boronic acid], the results for the IC50 in assay [1] and in assay [2] were 1.9 nM and 2240 nM, respectively.

In the case of `C=CC(=O)N1CCOC[C@@H]1COC(=O)N[C@@H](Cc1coc2ccccc12)B(O)O` [Example 93, ((R)-1-(((((R)-4-acryloylmorpholin-3-yl)methoxy)carbonyl)amino)-2-(benzofuran-3-yl)ethyl)boronic acid], the IC50 was 3 nM in assay [1] and 165 nM in assay [2].
